Converted amounts (≈) assume the structure as drawn.
Tests used:
E. coli ΔtolC = test: MIC, broth microdilution, E. coli ΔtolC panel; assay type: cell-based; details: Escherichia coli
Excerpt: The E. coli JW5503 strain with a deletion of the tolC gene (referred to here as E. coli ΔtolC) was kindly provided by Prof. Hironori Niki, National Institute of Genetics, Japan. The E. coli BW25113 strain with a partial deletion of the lptD gene, codons 330 to 352 (referred to here as E. coli lptD^mut) was kindly provided by Prof. Alexander S. Mankin, University of Illinois, Chicago, IL, USA [44]. The E. coli ΔtolC strain was transformed with the pDualrep2 (Amp^R) plasmid, whereas the E. coli lptD^mut strain was transformed with the pDualrep2 (Kan^R) plasmid (not yet published). Both E. coli strains were grown at 37 °C in Luria–Bertani (LB) medium supplemented with either 100 μg/mL ampicillin or 50 μg/mL kanamycin.
(§1) MIC values for a panel of E. coli ΔtolC strains were determined via the broth microdilution assay as described here with minor modifications. Briefly, the overnight E. coli culture was diluted to an OD600 of 0.01 in the fresh LB medium supplied with 100 μg/mL ampicillin, if required. Then, the cells were additionally incubated for 1–1.5 h at 37 °C with shaking at 200 rpm (Shaker-Incubator ES-20/80, BioSan, Riga, Latvia). Meanwhile, 100 μL of the liquid growth medium was placed in each well of a 96-well sterile plate (200 μL was placed in column 1). Solutions of tested compounds were added in the first column of the plate at 2 times the final concentration of 200 μg/mL. Then, 2-fold serial dilutions were performed. Immediately before use, bacterial inoculum was diluted (1:100) in the growth medium, and 100 μL of it was transferred in each well except for the sterility control column. The plate was incubated overnight (16–20 h) at 37 °C with constant shaking at 200 rpm (Shaker-Incubator ES-20/80, BioSan, Riga Latvia). Cell growth was assessed by scanning the OD600 with a VICTOR X5 Multilabel Plate Reader (PerkinElmer, Waltham, MA, USA).
(§2) Minimum inhibitory concentration (MIC) was defined as the lowest concentration of a chemical compound that inhibits the visible growth of the bacterial strain. At least three replicates of MIC measurements were performed.

[1] = test system: cell-free bacterial translation system based on the E. coli S30 lysate; test: In vitro translation in a cell-free bacterial system (firefly luciferase synthesis); assay type: biochemical
Procedure: The inhibition of firefly luciferase (Fluc) synthesis by new azithromycin derivatives was assessed with the E. coli S30 Extract System for Linear Templates (Promega, Madison, WI, USA). Each reaction (5 μL total volume) was supplied with 0.1 mM mixture of all canonical amino acids, 4 U of RiboLock RNase Inhibitor (Thermo Fisher Scientific, Waltham, MA, USA), 0.1 mM of D-luciferin (Sigma-Aldrich, Burlington, MA, USA), 50 ng of firefly luciferase (Fluc) mRNA, and a chemical compound at a final concentration, as indicated in the main text, or nuclease-free water instead. Before the addition of mRNA, reaction tubes were pre-incubated at RT for 5 min and then placed back on ice. After the addition of mRNA, reaction mixtures were immediately subjected to continuous chemiluminescence measurement using the VICTOR X5 Multilabel Plate Reader (PerkinElmer, Waltham, MA, USA) at 37 °C for 30 min. Maximal rates of the firefly luciferase (Fluc) accumulation were calculated using the OriginPro 7.5 software. The values were normalized to a positive control (nuclease-free water, assigned a value of 100%). The results were visualized using the QtiPlot software (version 0.9.8.9).

[2] = test system: E. coli ΔtolC pErmCL-ErmC; test: MIC, broth microdilution, E. coli ΔtolC panel; assay type: cell-based; details: for MIC: Escherichia coli
Procedure: In order to create the construct pErmCL-ErmC, the vector backbone was amplified using pZa-fwd (5′-TAAGAATTCTCTAGCCCG-3′) and pZa-rev (5′-[…]-3′) primers, and the pERMZα plasmid as a template. The ermC gene was amplified from the pERMCTP plasmid with ErmC-fwd (5′-[…]-3′) and ErmC-rev (5′-TAGGCGGGCTAGAGAATTC-3′) primers. The joining of two DNA fragments was performed using the NEBuilder® HiFi DNA Assembly Master Mix (New England Biolabs, Ipswich, MA, USA). Sequences of intermediate products and the final construct were confirmed by Sanger sequencing with appropriate primers.
(§3) The E. coli ΔtolC strain was also transformed with the pErmC, pErmCL-ErmC, and pERMZα plasmids. The resulting strains were grown at 37 °C in LB medium supplied with 100 μg/mL ampicillin.
as §1, §2

E. coli ΔtolC pERMZα = test: MIC, broth microdilution, E. coli ΔtolC panel; assay type: cell-based; details: Escherichia coli
Procedure: as §3, §1, §2

E. coli ΔtolC pErmC = test: MIC, broth microdilution, E. coli ΔtolC panel; assay type: cell-based; details: Escherichia coli
Procedure: as §3, §1, §2

[3] = test system: Staphylococcus aureus ATCC 29213; test: MIC, broth microdilution (CLSI); assay type: cell-based; details: ATCC29213, S. aureus ATCC 29213
Procedure: (§4) Minimum inhibitory concentration (MIC) values for facultative anaerobic bacteria were determined using the broth microdilution method outlined in the CLSI guidelines. Initially, all compounds were dissolved in dimethyl sulfoxide (DMSO) to achieve a concentration of 10 mg/mL. Subsequently, they were diluted with the Mueller–Hinton nutrient broth (MHB) supplemented with 5% defibrinated horse blood (for Streptococcus spp.) to a concentration of 64 μg/mL. Following 2-fold serial dilutions of the substances, bacterial cultures in the log growth phase were added to 96-well plates at a concentration of 2.5–5 × 10^5 CFU/mL, and the plates were incubated at 37 °C for 16–20 h.
as §2

[4] = test system: Streptococcus pneumoniae ATCC 49619; test: MIC, broth microdilution (CLSI); assay type: cell-based; details: ATCC49619, S. pneumoniae ATCC 49619, Tables 2 and 3
Procedure: as §4, §2

[5] = test system: Streptococcus agalactiae 1Cp; test: MIC, broth microdilution (CLSI); assay type: cell-based; details: S. agalactiae 1Cp, Table 3
Procedure: as §4, §2

[6] = test system: Clostridium sporogenes ATCC 19404; test: MIC, agar dilution, anaerobic bacteria (CLSI M11-A9); assay type: cell-based; details: ATCC19404, C. sporogenes ATCC 19404, anaerobic
Procedure: The antimicrobial activity against anaerobic bacteria was evaluated using the agar dilution method in accordance with the CLSI document M11-A9 [58]. Twofold serial dilutions of compounds, at 10 times the desired concentration, were prepared in water and diluted (1:10) with the Brucella Agar medium containing 5% defibrinated horse blood, 5 mg/L hemin, and 1 mg/L vitamin K. The resulting plates were inoculated with approximately 10^5 CFU per spot using a replicator and incubated anaerobically at 36 °C for 48 h.
as §2

[7] = test system: Propionibacterium acnes 55; test: as above; assay type: cell-based; details: Cutibacterium acnes; P. acnes 55, anaerobic clinical isolate

## CC[C@H]1OC(=O)[C@H](C)[C@@H](O[C@H]2C[C@@](C)(OC)[C@@H](O)[C@H](C)O2)[C@H](C)[C@@H](O[C@@H]2O[C@H](C)C[C@H](N(C)C)[C@H]2O)[C@](C)(O)C[C@@H](C)C(=O)[C@H](C)[C@@H](O)[C@]1(C)O [ERY, erythromycin]
E. coli ΔtolC
  MIC: 3.1 µg/mL (≈ 4.22 µM)
[1]; final concentration 5 μM, water control = 100%
  Relative luciferase activity (relative maximal rate of Fluc accumulation): 0.9%
[2]
  Fold increase in the MIC value on E. coli ΔtolC pErmCL-ErmC compared to E. coli ΔtolC: 16 fold
  MIC: 50 µg/mL (≈ 68.1 µM)
E. coli ΔtolC pERMZα
  MIC: 1.6 µg/mL (≈ 2.18 µM)
E. coli ΔtolC pErmC
  MIC: > 200 µg/mL

## Cc1ncc([N+](=O)[O-])n1CCO [MNZ, Metronidazole]
E. coli ΔtolC
  MIC: > 200 µg/mL
[1]; concentration of 50 μM (Figure 2B)
  Inhibition of protein synthesis in vitro: no inhibition was observed
[2]
  MIC: > 200 µg/mL
[3]
  MIC: > 32 µg/mL
[4]
  MIC: > 32 µg/mL
[5]
  MIC: > 32 µg/mL
[6]
  MIC: 8 µg/mL (≈ 46.7 µM)
E. coli ΔtolC pERMZα
  MIC: > 200 µg/mL
E. coli ΔtolC pErmC
  MIC: > 200 µg/mL
[7]
  MIC: > 32 µg/mL
